Results from US10766894B2, “Aza-indazole compounds for use in tendon and/or ligament injuries” (NOVARTIS AG, priority 2016, dated 2020).

Tested on: mouse immortalized TT-D6 Scx-luciferase (ScxL) cell line; transcriptional activation of Scleraxis (Scx) gene
Assay: SCX-LUC in vitro assay (scleraxis promoter luciferase reporter)
Assay type: cell-based
Conditions: Mus musculus, 96 h; Examples table; TT-D6 Scx-luciferase cells, 1 ng/ml TGFβ1, four days; read-out: Scx-Luc (EC50 μM)

Compound | EC50 [µM]
Nc1n[nH]c2ccc(-c3ccc(S(=O)(=O)N4CC5CCCC5C4)cc3Cl)nc12 (centres unmarked) [Example 51, 5-(2-chloro-4-((hexahydrocyclopenta[c]pyrrol-2(1H)-yl)sulfonyl)phenyl)-1H-pyrazolo[4,3-b]pyridin-3-amine] | 2.39
Nc1n[nH]c2ccc(-c3ccc(S(=O)(=O)Nc4cccc(Cl)c4F)cc3Cl)nc12 [Example 52, 4-(3-amino-1H-pyrazolo[4,3-b]pyridin-5-yl)-3-chloro-N-(3-chloro-2-fluorophenyl)benzenesulfonamide] | 1.1
Nc1n[nH]c2ccc(-c3ccc(NS(=O)(=O)c4ccc5c(c4)NCCO5)cc3Cl)nc12 [Example 53, N-(4-(3-amino-1H-pyrazolo[4,3-b]pyridin-5-yl)-3-chlorophenyl)-3,4-dihydro-2H-benzo[b][1,4]oxazine-6-sulfonamide] | 2.74
Cc1cc(S(=O)(=O)N[C@H]2CC[C@H](O)CC2)ccc1-c1ccc2[nH]nc(N)c2n1 [Example 54, 4-(3-amino-1H-pyrazolo[4,3-b]pyridin-5-yl)-N-((1r,4r)-4-hydroxycyclohexyl)-3-methylbenzenesulfonamide] | 1.13
NC(=O)[C@H]1C[C@@H](F)CN1S(=O)(=O)c1ccc(-c2ccc3[nH]nc(N)c3n2)c(Cl)c1 [Example 55, (2R,4R)-1-((4-(3-amino-1H-pyrazolo[4,3-b]pyridin-5-yl)-3-chlorophenyl)sulfonyl)-4-fluoropyrrolidine-2-carboxamide] | 6.16
Nc1n[nH]c2ccc(-c3ccc(S(=O)(=O)Nc4cccc(Cl)c4Cl)cc3Cl)nc12 [Example 56, 4-(3-amino-1H-pyrazolo[4,3-b]pyridin-5-yl)-3-chloro-N-(2,3-dichlorophenyl)benzenesulfonamide] | 1.64
Nc1n[nH]c2ccc(-c3ccc(S(=O)(=O)N4CC[C@@H](O)C4)cc3Cl)nc12 [Example 57, (R)-1-((4-(3-amino-1H-pyrazolo[4,3-b]pyridin-5-yl)-3-chlorophenyl)sulfonyl)pyrrolidin-3-ol] | 0.633
C[C@]1(O)CC[C@H](NS(=O)(=O)c2ccc(-c3ccc4[nH]nc(N)c4n3)c(Cl)c2)CC1 [Example 58, 4-(3-amino-1H-pyrazolo[4,3-b]pyridin-5-yl)-3-chloro-N-((1r,4r)-4-hydroxy-4-methylcyclohexyl)benzenesulfonamide] | 1.51
Nc1n[nH]c2ccc(-c3ccc(NS(=O)(=O)[C@@H]4CCCC[C@@H]4O)cc3Cl)nc12 [Example 60, (1R,2S)—N-(4-(3-amino-1H-pyrazolo[4,3-b]pyridin-5-yl)-3-chlorophenyl)-2-hydroxycyclohexane-1-sulfonamide] | 3.04
COc1ccc(S(=O)(=O)Nc2ccc(-c3ccc4[nH]nc(N)c4n3)c(Cl)c2)cc1NC(C)=O [Example 61, N-(5-(N-(4-(3-amino-1H-pyrazolo[4,3-b]pyridin-5-yl)-3-chlorophenyl)sulfamoyl)-2-methoxyphenyl)acetamide] | 1.54
Nc1n[nH]c2ccc(-c3ccc(NS(=O)(=O)c4cccc(C(F)(F)F)c4)cc3Cl)nc12 [Example 62, N-(4-(3-amino-1H-pyrazolo[4,3-b]pyridin-5-yl)-3-chlorophenyl)-3-(trifluoromethyl)benzenesulfonamide] | 1.3
Cc1cc(S(=O)(=O)N[C@H]2C[C@@H](O)C2)ccc1-c1ccc2[nH]nc(N)c2n1 [Example 64, 4-(3-amino-1H-pyrazolo[4,3-b]pyridin-5-yl)-N-((1s,3s)-3-hydroxycyclobutyl)-3-methylbenzenesulfonamide] | 0.162
Cc1cc(S(=O)(=O)NC2CCCC(O)C2)ccc1-c1ccc2[nH]nc(N)c2n1 (centres unmarked) [Example 65, 4-(3-amino-1H-pyrazolo[4,3-b]pyridin-5-yl)-N-(3-hydroxycyclohexyl)-3-methylbenzenesulfonamide] | 0.122
COc1cccc(S(=O)(=O)Nc2ccc(-c3ccc4[nH]nc(N)c4n3)c(Cl)c2)c1 [Example 67, N-(4-(3-amino-1H-pyrazolo[4,3-b]pyridin-5-yl)-3-chlorophenyl)-3-methoxybenzenesulfonamide] | 2.32
